Assay results: US20060094693A1, “Methods and compositions for treating glucose-associated conditions, metabolic syndrome, dyslipidemias and other conditions” (Point Therapeutics, Inc., priority 2004, published 2006)

How the values were obtained:
[1] = in vivo; conditions: Lewis, rat, in vivo
Description: (§2) Serum DPP-IV inhibition and observation of acute toxicity of amino boronic dipeptides in Lewis rats. […] After observations were completed or at the onset of a moribund state, humane euthanasia was performed by asphyxiation in 100% CO2.

[2] = system: Lewis rats; experiment: in vivo; conditions: Lewis, rat, in vivo, 5 days
Description: as §2

[3] = target: T1, serum DPP-IV (Mus musculus, UniProt P28843); experiment: Serum DPP-IV activity 2 hours after oral amino boronic dipeptides (Example 4); assay type: in vivo, BALB/c mice; conditions: 20 and 200 μg doses
T1 construct: from tissue; host or cells: serum of BALB/c mice dosed orally
Description: (§1) Assay ofserum DPP-IV inhibition and KC/CXCL1 levels in vivo. […] Each mouse received a single administration of each amino boronic dipeptide or saline, and blood samples were withdrawn from mice 2 hours later.
Serum DPP-IV activity was determined by reaction of a 10 μl volume of serum with 0.1 mM Ala-Pro-AFC (Enzyme System Products, Dublin, Calif.) in a 100 μl volume of 50 mM HEPES/Na buffer pH 7.6, 140 mM NaCl. […] Serum DPP-IV activity was expressed as fluorescent units (FU).

[4] = system: ob/ob mice; experiment: Mouse oral glucose tolerance test (OGTT); assay type: in vivo
Description: Protocol for mouse oral glucose tolerance test (OGTT). The day of oral-glucose challenge was defined as day 0. […] Agents were administered by oral gavage. Mice were restricted to a diet of 50% of their individual calculated food intake from day −1 onwards. On day 0, blood glucose was measured at […]. immediately followed by drug administration. At time point 0, glucose was administered by oral gavage (1g/kg), and blood glucose was measured at time points 0, 30, 60, 120 and 240 minutes. Means±SE were calculated from the data of individual mice in drug-treatment groups 1 and 2.

[5] = system: Zucker fa/fa rats; experiment: Rat oral glucose tolerance test (glucose, insulin, GLP-1); assay type: in vivo; conditions: 10 μmol/kg oral
Text: Protocol for rat oral glucose tolerance test (OG7T). […] On days −11 to −8, rats were fitted with intra-arterial catheters under light isoflurane anesthesia. […] From 12:00 a.m.

[6] = system: DIO rats; experiment: Single oral dose before oral glucose challenge, DIO rats (Example 10); assay type: in vivo; conditions: single oral dose 15 minutes prior to oral glucose
Text: The data shown in FIG. 16A are mean values from 10 rats per treatment.
The data shown in FIG. 16B are mean values from 10 rats per treatment.

[7] = system: Zucker fa/fa rats; experiment: Single oral dose before oral glucose challenge, Zucker Fa/Fa rats (Example 10); assay type: in vivo; conditions: single oral dose 15 minutes prior to oral glucose
Text: The data shown in FIG. 15 are mean values from 6 rats per treatment.

[8] = target: T1, serum DPP-IV; experiment: Serum DPP-IV inhibition in vivo after oral gavage (Example 2); parameters: species or system BALB/c mice
Description: Assay of serum DPP-IV inhibition in vivo. […] DPP-IV activity was determined by reaction of 10 μl serum with 90 μl of 0.11 mM Ala-Pro-AFC (Enzyme System Products, Dublin, Calif.) in 50 mM HEPES/Na buffer pH 7.6, 140 mM NaCl.

[9] = system: Zucker Diabetic Fatty (ZDF) rats; experiment: 6 week glycemic control study in Zucker Diabetic Fatty rats; assay type: in vivo
Description: The design of the 6 week long study is depicted in FIG. 8. 60 male Zucker Diabetic Fatty (ZDF) rats (5 weeks of age) were obtained from Charles River Labs. The animals are housed singly and allowed to acclimatize for 1 week before the initiation of the study. 24-hour food intake and body weight was measured gravimetrically twice weekly from the start of housing. HbA1C levels were measured at Day 0, 7, 14, 28 and 46. OGTT was administered on Day 2-3, 15 minutes after the administration of the drugs. OGTT was administered again at the end of the study but in this case, drugs were given 15 hours prior to the OGTT. The 24-hour glucose profile was monitored at day 14-15 of the study.
The insulin sensitivity index was calculated at the termination of the study according to the method described by Matsuda and DeFronzo (Diabetes Care. 1999 Sep.;22(9):1462-70).

[10] = system: serum KC/CXCL1; experiment: Serum KC/CXCL1 levels in vivo (ELISA); parameters: species or system BALB/c mice; conditions: 0.2-200 μg/mouse oral, 2 hours
Description: as §1
Serum concentration of mouse KC/CXCL1 was determined by Quantikine enzyme-linked immunosorbent assay (ELISA; R&D Systems, Minneapolis, Minn.) according to the manufacturer's instructions. ELISA was performed in duplicate for each sample.

[11] = target: T2, soluble recombinant human DPP-IV (Homo sapiens, UniProt P27487); experiment: In vitro assay of enzymatic activity of recombinant soluble DPP-IV and inhibition by amino boronic dipeptides; assay type: biochemical; conditions: assayed 3 minutes, 78 minutes and 16 hours after addition of Ala-Pro-AFC
T2 construct: immunoglobulin kappa light chain secretion signal (pSecTag2-B) (N, cleaved yes); made in house; host or cells: 293T cells, transient transfection; unpurified culture supernatant used
Text: Production of soluble recombinant human DPP-IV. Based on information on the N-terminus of serum DPP-IV (15), a truncated DPP-IV was engineered in which a signal/leader sequence was joined to the residue in DPP-IV corresponding to the N-terminus of serum DPP-IV to allow secretion. The cDNA encoding the desired truncated human DPP-IV dimer enzyme was engineered into the mammalian secretion vector pSecTag2 (Cat# V900-20, InVitrogen Corporation). The vector, available in A, B or C versions, representing three possible phases for gene fusion, contained an immunoglobulin-kappa light chain secretion signal followed by a selection of restriction sites for gene insertion. The fusion required engineering a restriction site upstream of the chosen fusion amino acid in the 5′ end of the DPP-IV dimer enzyme nucleic acid in phase with the chosen restriction site (Sfi I) in the vector secretion sequence. The chosen fusion amino acid in the 5′ end of the DPP-IV (Ser39) was 3′ of the trans-membrane anchoring domain. The pSecTag2 version B and its Sfi I restriction site was chosen for the fusion because it minimizes the additional N-terminal, vector-encoded residues in the mature secreted protein.
Construction of the fusion was as follows. First, total RNA was isolated from the Caco-2 colorectal carcinoma cell line (ATCC HTB-37) by standard Trizol/phenol/chloroform methodology. The purified RNA (approx. 2.5 μg in a 20 μl reaction) was used to make cDNA using oligo-dT primer and a commercial reverse transcription (RT) kit (InVitrogen). […] The following thermal cycler program was used: 94° C. for 45 sec. initial denaturation, then 30 cycles of 94° C., 10 sec.; 48° C., 6 sec.; 60° C., 4 min; followed by 5-min. extension at 72° C. after cycling.
DNA from the plasmid encoding DPP-IV dimer enzyme was prepared on an approximately 400 μg scale from overnight 30 ml cultures in Luria broth with 100 μg ampicillin per ml using a commercial kit (Qiagen Maxiprep Kit).
In vitro assay of enzmatic activity ofrecombinant soluble DPP-IV and inhibition by amino boronic dipeptides. The assay reaction mixture consisted of 135 μl 50 mM HEPES/Na buffer pH 7.6, 140 mM NaCl, 10-15 gl enzyme-containing culture supernatant, dipeptide substrate Ala-Pro-(7-amino-4-trifluoromethyl coumarin) (Ala-Pro-AFC; Enzyme System Products, Dublin, Calif.) at typically 0.1-1 mM added from a 100 or 400 mM stock in dimethyl formamide. The reaction mixture was incubated at room temperature, and production of the fluorescent AFC product was measured in a fluorometer (excitation, 400 nm; emission 505 nm), either by continuous monitoring or after termination with a one to one-tenth volume of 1 -M sodium acetate, pH 4.5. Fluorometric reading were made with a Molecular Dynamics Spectra Max GeminiXS capable of reading 96-well microtiter plates. The inhibitory activity of amino boronic dipeptides was investigated by preincubation of assay reaction mixtures with varying concentrations of each compound for 10 minutes before the addition of the substrate Ala-Pro-AFC.

T1 sequence (P28843 37-760 limits assumed): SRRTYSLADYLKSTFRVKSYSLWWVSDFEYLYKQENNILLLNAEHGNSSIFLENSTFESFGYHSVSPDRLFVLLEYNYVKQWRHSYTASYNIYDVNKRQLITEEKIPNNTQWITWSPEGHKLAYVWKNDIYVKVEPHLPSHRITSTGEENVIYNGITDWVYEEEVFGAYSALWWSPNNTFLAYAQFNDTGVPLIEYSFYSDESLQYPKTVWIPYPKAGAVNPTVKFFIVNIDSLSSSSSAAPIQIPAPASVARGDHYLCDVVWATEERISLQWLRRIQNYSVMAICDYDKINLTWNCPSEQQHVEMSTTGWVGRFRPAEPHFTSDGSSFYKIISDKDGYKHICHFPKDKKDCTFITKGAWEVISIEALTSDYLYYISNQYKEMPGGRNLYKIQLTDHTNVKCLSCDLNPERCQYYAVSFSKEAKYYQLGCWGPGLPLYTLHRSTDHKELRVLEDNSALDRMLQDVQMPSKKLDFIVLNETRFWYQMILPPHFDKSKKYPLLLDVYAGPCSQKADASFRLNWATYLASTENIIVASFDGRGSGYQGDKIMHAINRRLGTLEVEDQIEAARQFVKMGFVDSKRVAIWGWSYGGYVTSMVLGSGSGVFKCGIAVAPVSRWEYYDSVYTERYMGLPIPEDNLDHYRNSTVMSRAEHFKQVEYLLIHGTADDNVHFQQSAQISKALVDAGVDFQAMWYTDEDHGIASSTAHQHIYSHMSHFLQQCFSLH
T2 sequence (P27487 39-766 limits assumed): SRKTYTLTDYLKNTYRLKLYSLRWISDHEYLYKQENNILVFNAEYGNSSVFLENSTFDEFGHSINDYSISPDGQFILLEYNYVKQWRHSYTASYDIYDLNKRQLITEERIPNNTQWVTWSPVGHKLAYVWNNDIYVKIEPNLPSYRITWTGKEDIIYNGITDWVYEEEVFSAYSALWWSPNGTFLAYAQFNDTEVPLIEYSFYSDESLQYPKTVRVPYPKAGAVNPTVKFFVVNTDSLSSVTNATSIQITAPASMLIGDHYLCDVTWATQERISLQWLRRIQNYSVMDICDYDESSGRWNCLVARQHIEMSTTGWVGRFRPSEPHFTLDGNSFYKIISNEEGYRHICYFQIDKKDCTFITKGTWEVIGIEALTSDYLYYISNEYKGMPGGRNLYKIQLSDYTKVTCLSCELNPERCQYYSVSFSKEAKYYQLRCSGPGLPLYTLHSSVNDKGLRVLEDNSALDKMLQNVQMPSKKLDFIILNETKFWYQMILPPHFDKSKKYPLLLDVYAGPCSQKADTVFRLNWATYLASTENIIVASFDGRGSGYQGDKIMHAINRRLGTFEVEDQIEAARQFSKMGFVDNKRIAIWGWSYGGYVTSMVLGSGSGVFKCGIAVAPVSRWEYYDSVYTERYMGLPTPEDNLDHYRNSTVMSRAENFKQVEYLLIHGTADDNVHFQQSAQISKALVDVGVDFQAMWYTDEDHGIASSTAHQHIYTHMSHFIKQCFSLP

With `N[C@@H](CCC(=O)O)C(=O)N1CCC[C@H]1B(O)O` [Glu-boroPro, glutamic acid boroproline] the MTD at 5 days [1] was 15 mg/kg, the “MTD (maximum tolerated dose)” value [2] was 15,000 μg/kg and the “serum DPP-IV activity” value [3] was “maximally inhibited serum DPP-IV activity”. The “glucose excursion post oral glucose challenge” value ([4]; 1.0 μmol/kg oral, 15 minutes prior to glucose) was “reduced”, the “anti-glycemic effect, area under the blood glucose curve” value ([4]; single 1.0 μmol/kg dose) was “significant” and the blood glucose excursion ([5]; 15 min before glucose 2 g/kg) was “reduced”. The “blood plasma level of GLP-1” value ([5]; after oral glucose challenge) was “increased”, the “blood plasma level of insulin” value ([5]; after oral glucose challenge) was “increased” and the insulin response [6] was “improved insulin response”. The “insulin secretion calculated from AUC” value [6] was “increased insulin secretion”, the insulin response [7] was “improved insulin response” and the “ID50 (dose reducing serum DPP-IV activity by 50% of baseline)” value ([8]; BALB/c mice, single oral dose, 2 hours) was 1 μg per mouse. The “serum DPP-IV inhibition persisting” value ([8]; single oral 5 μg or 20 μg per mouse, until at least 6 hours) was “greater than 80%”, the “AUC of 24 hour glucose profile” value ([9]; 10 μmole/kg, day 14-15) was “achieve significance” and the “triglyceride (TG) lowering” value ([9]; 3 micromole/kg, 46 days of treatment) was “significant improvement”. For the same compound, the “food intake over time” value ([9]; 10 micromole/kg) was “apparent slight decrease in food intake”, the “triglyceride (TG) lowering” value ([9]; 10 micromole/kg, 46 days of treatment) was “significant improvement” and the “HbA1C level compared to vehicle” value ([9]; 10 micromole/kg, Day 46) was “significant reduction”. For the same compound, the “OGTT glucose levels compared to vehicle” value ([9]; 10 micromole/kg, OGTT 15 hours after drug, end of study) was “significant reduction in glucose levels”, the 24-hour glucose profile ([9]; 10 micromole/kg, day 14-15) was “improved compared to the metformin and the NVP-LAF237 groups” and the “rate of increase in HbA1C over time” value ([9]; 10 micromoles/kg, Day 0 to Day 46) was “decline in the rate of increase in HbA1C was most prominent”. For the same compound, the “free fatty acids (FFA)” value ([9]; 46 days of treatment, compared to vehicle) was “trend towards free fatty acids (FFA) reduction but this did not reach significance”, the “serum levels of KC/CXCL1” value [10] was “failed to affect serum levels of KC/CXCL1 at any of the doses tested” and the “persistence of DPP-IV inhibition after preincubation” value [11] was “sustained DPP-IV inhibition”.
